Test [1] relates to Plasmodium vinckeii. As to the kind of experiment: Efficacy against malaria in vivo, modified Peters' test, treatment of infected mice. The protocol:
The various derivatives were tested by the modified Peters' test. The substances were applied here in a quarter of the median lethal dose (LD50). In the test batch ten mice were infected with Plasmodium vinckeii, the pathogen of mouse malaria. After confirmation of the infection by blood testing four mice were treated. Six mice, which were not treated, served as a control group. […] The control mice had to be killed on day 5 after infection with parasitaemia of >80%.

For test [2], the system named is Plasmodium vinckeii. As to the kind of experiment: Protection from malaria in infected mice, pretreatment one day before infection. It counts as in vivo, mice (BALB/c-strain). The protocol: The efficacy of compounds in vivo against malaria was tested using male mice weighing 20 to 25 g (BALB/c-strain). Four mice were treated intraperitoneally with 50 mg/kg 3-(N-formyl-N-hydroxylamino)-propylphosphonic acid monosodium salt one day before infection. The mice were then infected with Plasmodium vinckeii. Mice which were not pretreated with the substance served as a control group.

For test [3], the system named is Plasmodium falciparum HB3 (Honduras). As to the kind of experiment: In vitro cytotoxicity against malaria parasites, [3H]-hypoxanthine insertion, strain HB3. The class given is cell-based. The following applies: strain HB3, resistant to pyrimethamine, 48 hours incubation, then 24 hours [3H]-hypoxanthine, read-out: IC50 value (concentration at which the vitality of parasites is reduced by a half). The protocol: (§1) On the Principle of IC50 Determination According to Vial et al (the Concentration at Which the Vitality of Parasites is Reduced by a Half)
(§2) To determine the IC50 value according to Vial et al malaria parasites are initially cultivated for a complete 48 hour cycle in the presence of inhibitors, in the subsequent 24 hours the survival rate is measured by [^3H]-hypoxanthine insertion.
(§3) A dilution series of 3-(N-formyl-N-hydroxylamino)-propylphosphonic acid monosodium salt is placed in 20 μl aliquots concentrated by 10 on a microtitre plate. Then 180 μl parasite suspension in culture medium is added to each well. Asynchronous cultures with a parasitaemia of approximately 0.4% and 2% haematocrite are used. The microtitre plates are subsequently incubated for 48 hours. Then 30 μl [^3H]-hypoxanthine are added to each well. After 24 hours of incubation the cells were harvested and the incorporated radioactivity was measured. In FIG. 1 the results with the strains HB3 and Dd2 are shown with known resistances against other malaria pharmaceutical compositions. In both strains there is a IC50 value of approximately 100 μg/l. The resistances of these strains are:
Plasmodium falciparum HB3 (Honduras) is resistant to pyrimethamine.

The test system of test [4] is Plasmodium falciparum Dd2 (Indo-China). The experiment in a line: In vitro cytotoxicity against malaria parasites, [3H]-hypoxanthine insertion, strain Dd2. The following applies: strain Dd2, resistant to cloroquine, quinine, pyrimethamine, cycloguanil and sulfadoxine, 48 hours incubation, then 24 hours [3H]-hypoxanthine, read-out: IC50 value (concentration at which the vitality of parasites is reduced by a half). It counts as cell-based. On the procedure: as §1, §2, §3
Plasmodium falciparum Dd2 (Indo-China) is resistant to cloroquine, quinine, pyrimethamine, cycloguanil and sulfadoxine.

`O=CN(O)CCCP(=O)([O-])O.[Na+]` [3-(N-formyl-N-hydroxylamino)-propylphosphonic acid monosodium salt]: the “living parasites after 1 day” value in the test on Plasmodium vinckeii [1] (50 mg/kg/d, mice with a parasitaemia of 80%, after 1 day) was “free of living parasites”. Besides, the “parasites 8 weeks after the treatment had stopped” value with Plasmodium vinckeii [1] (1,000 mg/kg/d over 3 days, 8 weeks after end of treatment) is “still free from parasites”. In addition, the “effect on parasites in the mice's blood” value in the test with Plasmodium vinckeii [1] (1,000 mg/kg/d over 3 days, mice infected with Plasmodium vinckeii) was “destruction of the parasites”. In the test on Plasmodium vinckeii [1] (1,000 mg/kg/d, after just one day), the “living parasites in treated group after one day” value was “free of living parasites”. Further, in the test on Plasmodium vinckeii [2] (50 mg/kg intraperitoneally one day before infection with Plasmodium vinckeii), the “infection in pretreated mice” value is on record as “No infection could be detected”. Also, in the test with Plasmodium vinckeii [2] (50 mg/kg intraperitoneally one day before infection, 8 weeks after infection), the “parasites 8 weeks after infection” value is “still free of parasites”. Besides, the IC50 in test [3] and in test [4] was roughly 0.1 µg/mL each time.
